According to patent publication US8697710B2, “Optionally substituted 3-amino-4-(thioxo or imino)-4,5-dihydro-2H-pyrazolo [3,4-d]pyrimidin-6(7H)-ones” (Intra-Cellular Therapies, Inc., priority 2008, dated 2014):

Biological target: Phosphodiesterase 1B (PDE1B)
Test: Measurement of PDE1B inhibition in vitro using IMAP phosphodiesterase assay kit
Type: biochemical, bovine
Settings: PDE1 inhibitory activity, IMAP fluorescence polarization, cGMP-fluorescein substrate
Excerpt: Measurement of PDE1B Inhibition in Vitro Using IMAP Phosphodiesterase Assay Kit
Phosphodiesterase 1B (PDE1B) is a calcium/calmodulin dependent phosphodiesterase enzyme that converts cyclic guanosine monophosphate (cGMP) to 5′-guanosine monophosphate (5′-GMP). PDE can also convert a modified cGMP substrate, such as the fluorescent molecule cGMP-fluorescein, to the corresponding GMP-fluorescein. The generation of GMP-fluorescein from cGMP-fluorescein can be quantitated, using, for example, the IMAP (Molecular Devices, Sunnyvale, Calif.) immobilized-metal affinity particle reagent.
Briefly, the IMAP reagent binds with high affinity to the free 5′-phosphate that is found in GMP-fluorescein and not in cGMP-fluorescein. […] Small fluorophores that are bound up in a large, slowly tumbling, complex can be distinguished from unbound fluorophores, because the photons emitted as they fluoresce retain the same polarity as the photons used to excite the fluorescence.
In the phosphodiesterase assay, cGMP-fluorescein, which cannot be bound to IMAP, and therefore retains little fluorescence polarization, is converted to GMP-fluorescein, which, when bound to IMAP, yields a large increase in fluorescence polarization (Δmp). Inhibition of phosphodiesterase, therefore, is detected as a decrease in Δmp. […]
A decrease in GMP concentration, measured as decreased Δmp, is indicative of inhibition of PDE activity.

IC50: < 200 nM
SMILES: C/N=c1/c2c(Nc3ccccc3)n(Cc3ccc(-c4ccccn4)cc3)nc2n(CC(C)C)c(=O)n1C [Example 2, 7-Isobutyl-5-methyl-4-(methylimino)-3-(phenylamino)-2-(4-(pyridin-2-yl)benzyl)-4,5-dihydro-2H-pyrazolo[3,4-d]pyrimidin-6(7H)-one]
